Measurements taken from EP3352763B1 (priority 2015, dated 2017).

How the values were obtained:
[1] = tested on: Influenzavirus A/Regensburg/D6/2009/H1N1; assay: Screening of antiviral effect of test substances (Fig. 1); assay type: cell-based; conditions: for antivirale Aktivität: Fig. 1, result in words
[2] = tested on: A/Regensburg/D6/2009/H1N1; assay type: cell-based, Influenzaviren; conditions: TC50/EC50, A/Regensburg/D6/2009/H1N1
[3] = tested on: Hantaviren; assay type: cell-based
[4] = tested on: A/Victoria/3/75/H3N2; assay type: cell-based, Influenzaviren
[5] = tested on: A549-Zellen
[6] = in vitro; conditions: dog, mdck
[7] = tested on: A/Mississippi/3/2001/H1N1; assay type: cell-based, Influenzaviren; conditions: TC50/EC50, A/Mississippi/3/2001/H1N1
[8] = in vitro; conditions: monkey, vero cells
[9] = tested on: Influenza-Viren vom Stamm A/Regensburg/D6/2009/H1N1; assay type: cell-based

Row | Structure (SMILES) | antivirale Aktivität [1] | Selektivitätsindex (S.I.) [2] | Reduktion der Viruslast ([1]; Fig. 1, screening of substances) [%] | Wirkung gegen Hantaviren [3] | Selektivitätsindex (S.I.) [4] | TC50 [5] [µM] | CC50 [6] [µM] | Selektivitätsindex (S.I.) [7] | CC50 [8] [µM] | antivirale Wirkung (Reduktion der Viruslast) [9] [%] | antiviraler Effekt [9] | Reduktion der Viruslast ([9]; pre-incubation of the viruses with Tilirosid)
1 | O=C(O)c1cc(O)c(O)c(O)c1 [Gallussäure, reference compound] | antivirale Aktivität |  |  |  |  |  |  |  |  |  |  | 
2 | O=C(/C=C/c1ccc(O)cc1)OC[C@H]1O[C@@H](Oc2c(-c3ccc(O)cc3)oc3cc(O)cc(O)c3c2=O)[C@H](O)[C@@H](O)[C@@H]1O [Tilirosid, Kaempferol-3-(6"-trans-p-coumaroyl)glucosid] | höchste antivirale Aktivität | 433 | > 90 | nicht gegen Hantaviren wirkt | 134 | 1.862 | 932 | 2.906 | 126 | > 90 | keinen antiviralen Effekt | keiner Reduktion der Viruslast
